Experimental data published in US6177441A, “Treating red blood cell solutions with anti-viral agents” (Cerus Corporation, priority 1998, dated 2001).
Where a name gives a salt, the structure may show the parent alone.

How the values were obtained:
R17 [1] = type: cell-based, bacteriophage R17
red blood cells [2] = test system: red blood cells
R17 [3] = experiment: R17 inactivation by Compound 1 in packed red blood cells (Example 2); type: cell-based, bacteriophage R17
Experimental: Another experiment was performed to test the inactivation ability of a novel compound, Compound 1. A 1:1000 dilution of R17 (stock titer was 11.9 logs) was prepared in 25 ml packed red blood cells. To each of 5 tubes was added 5 ml of this R17-packed red blood cell solution. Compound 1 was then dissolved in saline to a final concentration of 3 mg/ml. The compound in solution was added to the […] as follows: the first tube, the control tube, received saline only; the second tube received 10 μg/ml of Compound 1 in saline; the third tube received 30 μg/ml of Compound 1 in saline; the forth tube received 100 μg/ml Compound 1 in saline and the final tube received 300 μg/ml of Compound 1 in saline. The tubes were mixed and then incubated at 4° C. overnight. […] Concentrations above 30 μg/ml inactivated approximately 4 logs of R17 with a starting titer of 10 logs of R17.

red blood cells [4] = settings: mouse, in vivo
red blood cells [5] = settings: mouse, in vivo; remark: listed apart in the source
cell-free HIV = experiment: microbe, parasite or virus in culture; type: cell-based; settings: Human immunodeficiency virus 1, Erythrocyte, 100 min
cell-associated HIV = experiment: microbe, parasite or virus in culture; type: cell-based, HIVIIIB; settings: Human immunodeficiency virus 1, Erythrocyte
R17 [6] = experiment: Kinetics of R17 inactivation by QM with NAC quench (Example 3); settings: for Log Titer: NAC/no QM, no NAC/no QM 8.80
red cells = settings: photo treatment; cited from earlier work
R17 [7] = test system: R17

O=C(O)CCCc1ccc(N(CCCl)CCCl)cc1 [Chlorambucil, chlorambucil]
R17 inactivation (R17 [1]): ≤ 0.4 logs
R17 inactivation (words) (R17 [1]): little or no inactivation
IgG binding of red cells (red blood cells [2]): did not alter

COc1c2occc2c(CN(CCCl)CCCl)c2ccc(=O)oc12 [Compound 1, 5-[N,N-bis(2-chloroethyl)amino]methyl-8-methoxypsoralen hydrochloride]
R17 inactivation activity (R17 [3]; 10-300 μg/ml in packed red blood cells): showed R17 inactivation activity
R17 inactivated (R17 [3]; concentrations above 30 μg/ml, 4° C. overnight, starting titer 10 logs): approximately 4 logs

CCN(CCCl)CCCNc1c2ccc(Cl)cc2nc2ccc(OC)cc12.Cl.Cl [ICR-170, N-(2-chloroethyl)-N-ethyl-N'-(6-chloro-2-methoxy-9-acridinyl)-1,3-propanediamine dihydrochloride]
LOSS PER DAY (red blood cells [4]): 2.71%
RECOVERY (red blood cells [4]): 86.0 ± 6.6
% RECOVERY, HIGH (red blood cells [5]): 90.4
% RECOVERY, LOW (red blood cells [5]): 93.1
log reduction at 10 µg/mL (cell-free HIV): 0.6
log reduction at 20 µg/mL (cell-free HIV): 1.3
log reduction at 40 µg/mL (cell-free HIV): 2.3
log reduction at 80 µg/mL (cell-free HIV): 4
log reduction at 10 µg/mL (cell-associated HIV): 0.5
log reduction at 20 µg/mL (cell-associated HIV): 1.2
log reduction at 40 µg/mL (cell-associated HIV): 2
log reduction at 80 µg/mL (cell-associated HIV): 2

CC(=O)N[C@@H](CS)C(=O)O [NAC, N-acetyl-cysteine]
R17 kill by NAC alone (R17 [6]): does not kill R17
protection against QM inactivation (R17 [6]; NAC added before QM): substantial, but not complete protection against QM inactivation
Log Titer (R17 [6]; dilute at end): 8.35
Log Titer (R17 [6]; dilute): 8.73
quenching of QM activity (R17 [6]; combination of NAC and dilution): almost complete quenching of QM activity

CN(C)c1ccc2nc3ccc(=[N+](C)C)cc-3sc2c1 [methylene blue]
ATP of photo treated red cells (red cells): loss of ATP
IgG binding of photo treated red cells (red cells): binding of autologous immunoglobulin (IgG) to the red cell surface
ion permeability of photo treated red cells (red cells): enhanced ion permeability

CCN(CC)CCCC(C)Nc1c2ccc(Cl)cc2nc2ccc(OC)cc12 (centres unmarked) [quinacrine]
light-dependent kill of R17 (R17 [7]): no light-dependent kill
